These results are taken from patent publication US8906925B2, “Pyrido[4,3-B]indoles containing rigid moieties” (Medivation Technologies, Inc., priority 2008, dated 2014).

Where “and” joins values, the source holds several entries; their conditions need not be identical. Identical values can stand only once. Like-named read-outs stand apart in the source and are kept apart here.

In experiment [1] the target is T1, human recombinant serotonin (5-Hydroxytryptamine) 5-HT5A receptor (Homo sapiens, UniProt P47898).
T1 construct: expressed in transfected cells; host or cells: Chinese hamster ovary (CHO-K1) cells
Description: Serotonin 5-HT5A radioligand binding ([3H]LSD). The method, then:
Compounds of the invention are incubated with 1.7 nM [^3H]Lysergic acid diethylamide (LSD) for 60 min. at 37° C. […] Receptor proteins are filtered and washed, the filters are counted to determine [^3H]LSD specifically bound. Compounds are screened at 1 μM or lower, using 1% DMSO as vehicle. Compounds of the invention are tested in this biochemical assay and percent inhibition of specific binding is determined.

Experiment [2] has as its target T2, human recombinant adrenergic α2C receptor (Homo sapiens, UniProt P18825).
T2 construct: expressed in transfected cells; host or cells: insect Sf9 cells
T2 sequence (P18825 1-462): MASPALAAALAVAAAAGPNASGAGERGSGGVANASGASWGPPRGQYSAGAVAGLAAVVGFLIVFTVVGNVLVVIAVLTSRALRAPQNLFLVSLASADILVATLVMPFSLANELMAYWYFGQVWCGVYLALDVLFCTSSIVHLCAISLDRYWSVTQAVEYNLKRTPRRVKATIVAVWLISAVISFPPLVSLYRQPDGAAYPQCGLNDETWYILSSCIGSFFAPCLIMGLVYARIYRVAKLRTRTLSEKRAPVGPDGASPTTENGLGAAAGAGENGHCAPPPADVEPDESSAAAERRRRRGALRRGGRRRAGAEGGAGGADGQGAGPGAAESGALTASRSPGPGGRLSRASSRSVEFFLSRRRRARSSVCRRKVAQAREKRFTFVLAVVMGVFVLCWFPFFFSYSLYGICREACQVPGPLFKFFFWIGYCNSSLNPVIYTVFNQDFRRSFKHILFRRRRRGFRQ
Description: Adrenergic α2C radioligand binding ([3H]MK-912). Conditions: compound at 1 μM. The method, then:
To evaluate in radioligand binding assays the activity of compounds of the invention, human recombinant adrenergic α2C receptor expressed in insect Sf9 cells (Uhlen S et al. J Pharmacol Exp Ther. 271:1558, 1994) in a modified Tris-HCl buffer (50 mM Tris-HCl, pH 7.4, 12.5 mM MgCl2, 2 mM EDTA) was used. Compounds of the invention were incubated with 1 nM [^3H]MK-912 for 60 min. at 25° C. Non-specific binding was estimated in the presence of […] WB-4101. Receptor proteins were filtered and washed, the filters were then counted to determine [^3H]MK-912 specifically bound. Compounds were screened at 1 μM or lower, using 1% DMSO as vehicle. Compounds of the invention were tested in this biochemical assay and percent inhibition of specific binding was determined.

Experiment [3] concerns rat central imidazoline I2 receptor. Description: Central imidazoline I2 radioligand binding ([3H]Idazoxan). How it is done: To evaluate in radioligand binding assays the activity of compounds of the invention, rat central imidazoline I2 receptor obtained from Wistar Rat cerebral cortex (Brown, C. M. et al., Br. J. Pharmacol. 99:803, 1990) in a modified Tris-HCl buffer (50 mM Tris-HCl buffer, pH 7.4, 0.5 mM EDTA) was used. Compounds of the invention were incubated with 2 nM [^3H]Idazoxan for 30 min. at 25° C. Non-specific binding was estimated in the presence of 1 μM Idazoxan. Receptor proteins were filtered and washed, the filters were then counted to determine [^3H]Idazoxan specifically bound. Compounds were screened at 1 μM or lower, using 1% DMSO as vehicle. Compounds of the invention were tested in this biochemical assay and percent inhibition of specific binding was determined.

Experiment [4] addresses T3, rat adrenergic α1B receptor (Rattus norvegicus, UniProt P15823).
T3 construct: from tissue; host or cells: Wistar rat liver
T3 sequence (P15823 1-515): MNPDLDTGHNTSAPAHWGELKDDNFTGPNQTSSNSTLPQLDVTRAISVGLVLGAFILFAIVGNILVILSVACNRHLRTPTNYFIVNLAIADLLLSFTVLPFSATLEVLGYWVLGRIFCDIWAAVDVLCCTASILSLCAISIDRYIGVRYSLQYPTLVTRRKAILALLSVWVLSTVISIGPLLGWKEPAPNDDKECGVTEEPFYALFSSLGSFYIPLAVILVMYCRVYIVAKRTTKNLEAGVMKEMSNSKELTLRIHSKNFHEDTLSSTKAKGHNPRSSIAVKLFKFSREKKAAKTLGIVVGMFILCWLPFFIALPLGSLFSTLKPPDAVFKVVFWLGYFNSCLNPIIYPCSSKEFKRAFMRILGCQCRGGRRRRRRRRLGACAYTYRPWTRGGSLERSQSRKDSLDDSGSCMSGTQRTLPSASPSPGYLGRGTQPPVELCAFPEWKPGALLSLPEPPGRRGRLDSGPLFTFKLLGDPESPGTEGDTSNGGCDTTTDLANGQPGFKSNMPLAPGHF
Put plainly: Adrenergic α1B radioligand binding ([3H]Prozosin). The following applies: compound at 1 μM. The method, then:
To evaluate in radioligand binding assays the activity of compounds of the invention, rat adrenergic α1B receptor obtained from Wistar Rat liver (Garcia-S'ainz, J. A. et al., Biochem. Biophys. Res. Commun. 186:760, 1992; Michel A. D. et al., Br. J. Pharmacol. 98:883, 1989) in a modified Tris-HCl buffer (50 mM Tris-HCl buffer, pH 7.4, 0.5 mM EDTA) was used. Compounds of the invention were incubated with 0.25 nM [^3H]Prozosin for 60 min. at 25° C. Non-specific binding was estimated in the presence of 10 μM phentolamine. Receptor proteins were filtered and washed, the filters were then counted to determine [^3H]Prozosin specifically bound. Compounds were screened at 1 μM or lower, using 1% DMSO as vehicle. Compounds of the invention were tested in this biochemical assay and percent inhibition of specific binding was determined.

The mark [5] stands for this setting: compound at 1 μM, read-out: Inhibition of ligand binding, Serotonin 5-HT5A (percent inhibition of specific binding).
Where [6] appears, read: percent inhibition of specific binding, read-out: Inhibition of ligand binding, Adrenergic α2C.
Where [7] appears, read: percent inhibition of specific binding, read-out: Inhibition of ligand binding, Adrenergic α1B.
The mark [8] stands for this setting: percent inhibition of specific binding, 1 µM.

T1 sequence (P47898 whole entry): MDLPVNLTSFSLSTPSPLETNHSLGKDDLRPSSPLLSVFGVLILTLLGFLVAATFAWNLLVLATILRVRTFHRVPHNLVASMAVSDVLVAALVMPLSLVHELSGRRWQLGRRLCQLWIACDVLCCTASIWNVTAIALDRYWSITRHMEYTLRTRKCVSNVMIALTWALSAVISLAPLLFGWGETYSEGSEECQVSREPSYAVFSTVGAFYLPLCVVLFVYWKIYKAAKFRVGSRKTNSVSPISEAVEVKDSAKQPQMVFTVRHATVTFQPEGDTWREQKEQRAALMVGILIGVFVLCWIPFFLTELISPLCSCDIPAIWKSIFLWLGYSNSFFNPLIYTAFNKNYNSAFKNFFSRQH

Regarding `CCN1CCc2c(c3cc(C)ccc3n2CC(O)c2ccc(C)cc2)C1` (racemic) [Compound 51, racemic-2-(2-ethyl-1,2,3,4-tetrahydro-8-methylpyrido[4,3-b]indol-5-yl)-1-p-tolylethanol], the inhibition – broadly, the percentage by which the read-out fell short of the control – at 1 µM in experiment [1] (setting [5]) was 27%; in experiment [2] (setting [6]) it was 92%; in experiment [4] (setting [7]) it was 95%. The “Imidazoline I2 Central (1 μM), percent inhibition of specific binding” value in experiment [3] turned out to be 79%.

With `C/C(=C\n1c2c(c3cc(Cl)ccc31)CN(C)CC2)c1ccc(F)cc1` [Compound 83, (E)-8-chloro-5-(2-(4-fluorophenyl)prop-1-enyl)-2,3,4,5-tetrahydro-2-methyl-1H-pyrido[4,3-b]indole], the figures for the inhibition at 1 µM in experiment [1] (setting [5]), in experiment [2] (setting [6]) and in experiment [4] (setting [7]) were 97%, 99% and 96%, respectively. Also, the “Imidazoline I2 Central (1 μM), percent inhibition of specific binding” value in experiment [3] is recorded as 85%.

Turning to `Cc1ccc(C(O)Cn2c3c(c4ccccc42)CN(C)CC3)cc1` (racemic) [Compound 53, racemic-2-(1,2,3,4-tetrahydro-2-methylpyrido[4,3-b]indol-5-yl)-1-p-tolylethanol], the inhibition at 1 µM came out at 26% in experiment [1] (setting [5]), 82% in experiment [2] (setting [6]) and 66% in experiment [4] (setting [7]). The “Imidazoline I2 Central (1 μM), percent inhibition of specific binding” value in experiment [3] worked out at 78%.

Take `Cc1ccc2c(c1)c1c(n2CC#Cc2ccccn2)CCN(C)C1` [Compound No. 500, 2,3,4,5-tetrahydro-2,8-dimethyl-5-(3-(pyridin-2-yl)prop-2-ynyl)-1H-pyrido[4,3-b]indole]: the inhibition at 1 µM in experiment [1] (setting [5]) is 23%; in experiment [2] (1 nM [3H]MK-912, read-out: Inhibition of ligand binding, Adrenergic α2C (percent inhibition of specific binding)), 43%; in experiment [4] (read-out: Inhibition of ligand binding, Adrenergic α1B (percent inhibition of specific binding)), 27%. Besides, the “Imidazoline I2 Central (1 μM), percent inhibition of specific binding” value in experiment [3] turned out to be 54%.

Take `Cc1ccc2[nH]c3c(c2c1)CN(C)CC3` [Compound 3, 2,8-Dimethyl-2,3,4,5-tetrahydro-1H-pyrido[4,3-b]indole]: the “Imidazoline I2 Central (1 μM), percent inhibition of specific binding” value in experiment [3] is reported as 58%.

Turning to `Cc1ccc(C(O)Cn2c3c(c4cc(C)ccc42)CN(C)CC3)cc1` (racemic) [Compound 43, racemic-2-(1,2,3,4-tetrahydro-2,8-dimethylpyrido[4,3-b]indol-5-yl)-1-p-tolylethanol], the inhibition at 0.1 µM in experiment [1] (compound at 0.1 μM, read-out: Inhibition of ligand binding, Serotonin 5-HT5A (percent inhibition of specific binding)) was 19%. Further, the “Inhibition of ligand binding, Serotonin 5-HT5A (percent inhibition of specific binding)” value in experiment [1] (compound at 1 μM, 1 µM) is on record as 73%. For the same compound, the inhibition at 1 µM in experiment [1] (setting [5]) stood at 61%; in experiment [2] (setting [6]), 100%; in experiment [4] (setting [7]), 97%. For the same compound, the “Inhibition of ligand binding, Adrenergic α2C” value in experiment [2] (setting [8]) amounted to 94%. For the same compound, the “Imidazoline I2 Central (1 μM), percent inhibition of specific binding” value in experiment [3] (1 µM) was 76% and 79%. The “Inhibition of ligand binding, Adrenergic α1B” value in experiment [4] (setting [8]) is on record as 96%.

Regarding `CCN1CCc2c(c3ccccc3n2CC(O)c2ccc(C)cc2)C1` (racemic) [Compound 44, racemic-2-(2-ethyl-1,2,3,4-tetrahydropyrido[4,3-b]indol-5-yl)-1-p-tolylethanol], the inhibition at 1 µM in experiment [1] (setting [5]) amounted to 0%; in experiment [2] (setting [6]), 35%; in experiment [4] (setting [7]), 38%. Also, in experiment [3], the “Imidazoline I2 Central (1 μM), percent inhibition of specific binding” value is reported as 46%.
